{"source": "patent US7129218B2", "about": "“Use of rhamnolipids in wound healing, treatment and prevention of gum disease and periodontal regeneration” (Paradigm Biomedical, Inc., priority 1999, dated 2006)", "key": {"[1]": {"tested_on": "neonatal human fibroblast cells", "experiment": "Caspase detection in neonatal human fibroblast cells in FM, fluorescence spectroscopy", "format": "cell-based", "conditions": "fibroblasts in FM", "from_the_text": "The procedure for caspase detection in neonatal human fibroblast cells in fibroblast growth medium FM* treated with BAC-3 using fluorescence spectroscopy.\nNote: CaspaTag Fluorescein Caspase Activity Kit (Intergen Company) was used to detect active caspase enzymes with fluorescent spectroscopy. All solutions, except cell medium and PBS, were included with the kit.\n12 vials of neonatal human fibroblasts, NHF97-001 passage #3 (prepared as described in section 2.1.a), were retrieved from a liquid N2 chamber. Closed vials were quickly defrosted in a small amount of 37° C., 75% ethanol. […]\nDi-rhamnolipid BAC-3 was weighed on the precision balance (Mettler AC100) and dissolved in FM medium to make an aqueous 1 mg/ml di-rhamnolipid BAC-3 stock solution. […] The remaining 9 plates were used as controls: 3 plates for positive apoptosis control (apoptosis induction by UVB+antibody), 3 plates for BAC-3 untreated control and 3 plates for fluorescence control (FAM-VAD-FMK unlabelled cells). […]\nOn day 6, treatment with BAC-3 was completed and cells were trypsinized and collected into 50 ml centrifuge tubes. Cells were counted using a hemacytometer and a trypan blue exclusion test and densities were adjusted to 1.0×10^6 cells per ml of FM medium. […]"}, "incision wounds": {"tested_on": "incision wounds", "experiment": "Tensile strength of incision wounds (rats)", "format": "in vivo, Sprague-Dawley rats", "conditions": "0.1% BAC-3; 21 days after wounding; p<0.05 by ANOVA; FIG. 3", "method": "The wounding of animals was performed according to the Protocol for Animal Use and Care at the University of California-Davis (hereafter UC-Davis). The entire animal protocol required 70 Sprague-Dawley rats: 30 rats for incision wounds and 40 rats for burn wounds. Among them 36 rats were burned over 7% of their skin and 4 rats were burned over 15% of their skin. Incision wounds of whole skin and burn wounds were treated topically with 2 test doses of the pharmaceutical preparation of di-rhamnolipid BAC-3. Each dose contained a). 1%, and 0.1% of active di-rhamnolipid (BAC-3) in eucerin (eucerin=71.5 g Vaselinum album (Producer: D.E.A. Hamburg); 23.8 g Lanolinum (Producer I.O.I. Hamburg); 4.7 g Cholesterin (Producer: Solvay, Wiena, Austria); Water Number: 320); or b). 1%; 0.1% active rhamnolipid (BAC-3) with antiseptic (chlorhexidine hydrochloride-PLIVA-Zagreb). Eucerin with BAC-3 was administrated twice daily during healing. The same experiment had one control group without the treatment, and one control group which was treated with ointment+1% chlorhexidine hydrochloride. […]\nTensile Strength Determination. […] The tensile strength of healthy skin was measured in killed animals from each group.\nEffect of BAC-3 on Tensile Strength of Incision Wounds (FIG. 3) with and without chlorhexidine hydrochloride. The tensile strength of incision wounds was measured 21 days after wounding. […]"}}, "data": [{"smiles": "CCCCCCCC(CC(=O)O)OC(=O)CC(CCCCCCC)OC1OC(C)C(O)C(O)C1OC1OC(C)C(O)C(O)C1O", "note": "[BAC-3, (α-L-rhamnopyranosyl-(1,2)-α-L-rhamnopyranosyl)-3-hyroxydecanoyl-3-hydroxydecanoic acid]", "values": [{"measurement": "optimal concentration for inducing apoptosis (caspase activity peak)", "setting": "[1]; 6 days, tested 100, 50, 10 and 1 μg/ml", "value": 50, "unit": "µg/mL"}, {"measurement": "mechanism of cell death at higher concentrations", "setting": "[1]; higher concentrations of BAC-3 (detergent effect)", "value": "cell necrosis"}, {"measurement": "tensile strength of incision wounds vs corresponding vehicle", "setting": "incision wounds", "value": "significantly lower"}]}]}
